Measured values: ChEMBL document CHEMBL5120862, “Novel non-covalent LSD1 inhibitors endowed with anticancer effects in leukemia and solid tumor cellular models” (Eur J Med Chem, 2022)
pIC50: −log10 of the molar value. Activity calls are given as the source filed them. No cut-off for these calls is given here.

Columns and labels:
[1] = Cytotoxicity against HMEC cells assessed as residual cell viability at 0.5 uM incubated for 72 hrs by MTT assay relative to control; type: toxicity, cell-based; conditions: human, read-out: Activity
THP-1 [2] = experiment: Antiproliferative activity against human THP-1 cells assessed as inhibition of cell growth incubated for 144 hrs by CellTiter-Glo luminescent cell viability assay; type: functional, cell-based; conditions: THP-1, 144 h
RD [3] = experiment: Induction of apoptosis in human RD cells assessed as increase in caspase 3/7 level at 2 uM incubated for 24 hrs; type: functional, cell-based
[4] = molecular target: Lysine-specific histone demethylase 1A (Homo sapiens) (UniProt O60341); experiment: Inhibition of LSD1 in human MV4-11 cells assessed as increase in H3K4me2 level at 0.2 to […] incubated for 24 hrs by Western blot analysis; type: cell-based; conditions: dose 0.2-2.5 µM
RD [5] = experiment: Antiproliferative activity against human RD cells assessed as inhibition of cell growth incubated for 144 hrs; type: functional, cell-based
THP-1 [6] = experiment: Antiproliferative activity against human THP-1 cells assessed as inhibition of cell growth incubated for 24 hrs by CellTiter-Glo luminescent cell viability assay; type: functional, cell-based; conditions: THP-1, 24 h
[7] = molecular target: Lysine-specific histone demethylase 1A (Homo sapiens) (UniProt O60341); experiment: Inhibition of LSD1 in human Rh30 cells assessed as increase in H3K4me2 level at 1 uM incubated for 48 hrs by Western blot analysis; type: cell-based
SJRH30 [8] = experiment: Antiproliferative activity against human Rh30 cells assessed as reduction in live cells at 2 uM incubated for 24 hrs by calceinAM/propidium iodide staining based fluorescence microscopy; type: functional, cell-based
[9] = molecular target: T1, MAO-A (amine oxidase [flavin-containing] A) (Homo sapiens, UniProt P21397); experiment: Inhibition of human MAO-A using p-tyramine as substrate at 100 uM by fluorimetric analysis relative to control; conditions: human MAO-A enzyme, probe p-tyramine
T1 sequence (P21397 whole entry): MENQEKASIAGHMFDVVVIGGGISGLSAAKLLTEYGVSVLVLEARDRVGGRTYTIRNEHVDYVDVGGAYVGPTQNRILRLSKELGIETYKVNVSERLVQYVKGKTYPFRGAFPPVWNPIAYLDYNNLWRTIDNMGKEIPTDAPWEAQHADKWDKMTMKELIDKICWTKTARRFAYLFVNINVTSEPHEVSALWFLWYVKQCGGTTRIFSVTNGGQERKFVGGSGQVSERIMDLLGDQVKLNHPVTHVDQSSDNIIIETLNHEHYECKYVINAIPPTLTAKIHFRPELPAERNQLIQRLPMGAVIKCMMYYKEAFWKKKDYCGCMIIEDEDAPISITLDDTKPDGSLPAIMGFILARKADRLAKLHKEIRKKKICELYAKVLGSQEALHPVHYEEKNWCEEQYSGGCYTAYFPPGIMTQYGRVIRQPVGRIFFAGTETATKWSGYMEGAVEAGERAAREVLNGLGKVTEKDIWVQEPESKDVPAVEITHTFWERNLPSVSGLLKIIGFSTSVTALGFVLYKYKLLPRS

[10] = Cytotoxicity against HMEC cells assessed as residual cell viability at 1 uM incubated for 72 hrs by MTT assay relative to control; type: toxicity, cell-based; conditions: human, read-out: Activity
[11] = molecular target: Histone-lysine N-methyltransferase, H3 lysine-79 specific (Homo sapiens) (UniProt Q8TEK3); experiment: Inhibition of […] (unknown origin) using [3H]SAM and HeLa oligo nucleosomes as substrates at 100 uM incubated for 1 hr relative to control
SJRH30 [12] = experiment: Antiproliferative activity against human Rh30 cells assessed as inhibition of cell growth incubated for 24 hrs; type: functional, cell-based; conditions: SJRH30, 24 h
MV4-11 [13] = experiment: Induction of apoptosis in human MV4-11 cells assessed as accumulation of cells at sub-G1 phase incubated for 24 hrs; type: functional, cell-based; conditions: dose 0.2-25 µM, DDE = dose-dependent effect
RD [14] = experiment: Antiproliferative activity against human RD cells assessed as reduction in live cells at 2 uM incubated for 72 hrs by calceinAM/propidium iodide staining based fluorescence microscopy; type: functional, cell-based
[15] = Cytotoxicity against human AHH-1 cells assessed as residual cell viability at 1 uM measured after 72 hrs by MTT assay relative to control; type: toxicity, cell-based; conditions: read-out: Activity
RD [16] = experiment: Antiproliferative activity against human RD cells assessed as inhibition of cell growth incubated for 24 hrs; type: functional, cell-based
[17] = molecular target: Histone-lysine N-methyltransferase EZH2 (Homo sapiens) (UniProt Q15910); experiment: Inhibition of EZH2 (unknown origin) using [3H]SAM and chicken core histone as substrates at 100 uM incubated for 1 hr relative to control
[18] = Cytotoxicity against human derived mesenchymal stem cells assessed as residual cell viability at 1.25 uM measured after 72 hrs relative to control; type: toxicity, cell-based; conditions: read-out: Activity
[19] = molecular target: T2, MAO-B (amine oxidase [flavin-containing] B) (Homo sapiens, UniProt P27338); experiment: Inhibition of human MAO-B using p-tyramine as substrate at 100 uM by fluorimetric analysis relative to control; conditions: human MAO-B enzyme, probe p-tyramine
T2 sequence (P27338 whole entry): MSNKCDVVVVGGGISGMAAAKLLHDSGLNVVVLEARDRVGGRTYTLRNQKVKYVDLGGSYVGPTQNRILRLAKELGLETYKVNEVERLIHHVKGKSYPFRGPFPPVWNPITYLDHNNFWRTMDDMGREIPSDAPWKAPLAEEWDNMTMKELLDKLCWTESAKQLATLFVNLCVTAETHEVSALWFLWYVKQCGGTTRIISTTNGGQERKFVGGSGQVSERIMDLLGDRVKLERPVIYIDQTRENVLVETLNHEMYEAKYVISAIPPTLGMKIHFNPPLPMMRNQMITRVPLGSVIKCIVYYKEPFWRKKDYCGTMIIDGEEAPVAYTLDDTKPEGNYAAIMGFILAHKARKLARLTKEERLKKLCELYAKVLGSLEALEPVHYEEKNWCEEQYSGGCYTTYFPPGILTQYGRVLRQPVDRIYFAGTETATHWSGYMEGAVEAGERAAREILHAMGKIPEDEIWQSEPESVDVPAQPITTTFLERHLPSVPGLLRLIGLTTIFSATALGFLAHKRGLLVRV

MDA-MB-231 = experiment: Antiproliferative activity against human MDA-MB-231 cells assessed as inhibition of cell growth measured after 72 hrs by MTT assay; type: functional, cell-based; conditions: MDA-MB-231, 72 h
[20] = molecular target: Lysine-specific histone demethylase 1A (Homo sapiens) (UniProt O60341); experiment: Inhibition of LSD1 in human MV4-11 cells assessed as increase in CD86 expression level incubated for 24 hrs by qRT-PCR analysis; type: cell-based; conditions: dose 0.2-1 µM
MV4-11 [21] = experiment: Antiproliferative activity against human MV4-11 cells assessed as inhibition of cell growth at 0.2 to […] incubated for 72 hrs by trypan blue staining based analysis; type: functional; conditions: dose 0.2-2.5 µM
MV4-11 [22] = experiment: Induction of cell cycle arrest in human MV4-11 cells assessed as accumulation of cells at G1 phase at 0.2 to […] incubated for 24 hrs; type: functional, cell-based; conditions: dose 0.2-2.5 µM

Chain of Histone-lysine N-methyltransferase EZH2 (Homo sapiens) (Q15910 whole entry, looked up): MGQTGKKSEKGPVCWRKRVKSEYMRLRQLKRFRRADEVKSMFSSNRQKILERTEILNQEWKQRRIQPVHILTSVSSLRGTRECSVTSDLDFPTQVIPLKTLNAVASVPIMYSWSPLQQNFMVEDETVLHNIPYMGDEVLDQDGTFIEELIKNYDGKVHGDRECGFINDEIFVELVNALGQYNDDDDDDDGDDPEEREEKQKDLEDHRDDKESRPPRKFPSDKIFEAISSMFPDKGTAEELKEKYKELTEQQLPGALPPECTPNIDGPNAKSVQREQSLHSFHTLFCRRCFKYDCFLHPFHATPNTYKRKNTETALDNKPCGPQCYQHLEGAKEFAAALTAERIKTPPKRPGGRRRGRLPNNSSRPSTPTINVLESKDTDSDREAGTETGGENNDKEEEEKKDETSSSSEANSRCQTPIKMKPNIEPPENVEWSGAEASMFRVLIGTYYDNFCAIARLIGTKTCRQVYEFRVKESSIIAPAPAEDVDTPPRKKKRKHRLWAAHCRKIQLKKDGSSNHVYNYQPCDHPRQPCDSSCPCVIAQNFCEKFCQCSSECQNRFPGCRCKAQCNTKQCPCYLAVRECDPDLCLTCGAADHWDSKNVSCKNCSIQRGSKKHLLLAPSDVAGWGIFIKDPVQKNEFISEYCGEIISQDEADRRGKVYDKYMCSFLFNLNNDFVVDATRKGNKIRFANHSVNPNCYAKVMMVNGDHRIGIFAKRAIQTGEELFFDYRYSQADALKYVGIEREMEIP
Chain of Histone-lysine N-methyltransferase, H3 lysine-79 specific (Homo sapiens) (Q8TEK3 whole entry, looked up): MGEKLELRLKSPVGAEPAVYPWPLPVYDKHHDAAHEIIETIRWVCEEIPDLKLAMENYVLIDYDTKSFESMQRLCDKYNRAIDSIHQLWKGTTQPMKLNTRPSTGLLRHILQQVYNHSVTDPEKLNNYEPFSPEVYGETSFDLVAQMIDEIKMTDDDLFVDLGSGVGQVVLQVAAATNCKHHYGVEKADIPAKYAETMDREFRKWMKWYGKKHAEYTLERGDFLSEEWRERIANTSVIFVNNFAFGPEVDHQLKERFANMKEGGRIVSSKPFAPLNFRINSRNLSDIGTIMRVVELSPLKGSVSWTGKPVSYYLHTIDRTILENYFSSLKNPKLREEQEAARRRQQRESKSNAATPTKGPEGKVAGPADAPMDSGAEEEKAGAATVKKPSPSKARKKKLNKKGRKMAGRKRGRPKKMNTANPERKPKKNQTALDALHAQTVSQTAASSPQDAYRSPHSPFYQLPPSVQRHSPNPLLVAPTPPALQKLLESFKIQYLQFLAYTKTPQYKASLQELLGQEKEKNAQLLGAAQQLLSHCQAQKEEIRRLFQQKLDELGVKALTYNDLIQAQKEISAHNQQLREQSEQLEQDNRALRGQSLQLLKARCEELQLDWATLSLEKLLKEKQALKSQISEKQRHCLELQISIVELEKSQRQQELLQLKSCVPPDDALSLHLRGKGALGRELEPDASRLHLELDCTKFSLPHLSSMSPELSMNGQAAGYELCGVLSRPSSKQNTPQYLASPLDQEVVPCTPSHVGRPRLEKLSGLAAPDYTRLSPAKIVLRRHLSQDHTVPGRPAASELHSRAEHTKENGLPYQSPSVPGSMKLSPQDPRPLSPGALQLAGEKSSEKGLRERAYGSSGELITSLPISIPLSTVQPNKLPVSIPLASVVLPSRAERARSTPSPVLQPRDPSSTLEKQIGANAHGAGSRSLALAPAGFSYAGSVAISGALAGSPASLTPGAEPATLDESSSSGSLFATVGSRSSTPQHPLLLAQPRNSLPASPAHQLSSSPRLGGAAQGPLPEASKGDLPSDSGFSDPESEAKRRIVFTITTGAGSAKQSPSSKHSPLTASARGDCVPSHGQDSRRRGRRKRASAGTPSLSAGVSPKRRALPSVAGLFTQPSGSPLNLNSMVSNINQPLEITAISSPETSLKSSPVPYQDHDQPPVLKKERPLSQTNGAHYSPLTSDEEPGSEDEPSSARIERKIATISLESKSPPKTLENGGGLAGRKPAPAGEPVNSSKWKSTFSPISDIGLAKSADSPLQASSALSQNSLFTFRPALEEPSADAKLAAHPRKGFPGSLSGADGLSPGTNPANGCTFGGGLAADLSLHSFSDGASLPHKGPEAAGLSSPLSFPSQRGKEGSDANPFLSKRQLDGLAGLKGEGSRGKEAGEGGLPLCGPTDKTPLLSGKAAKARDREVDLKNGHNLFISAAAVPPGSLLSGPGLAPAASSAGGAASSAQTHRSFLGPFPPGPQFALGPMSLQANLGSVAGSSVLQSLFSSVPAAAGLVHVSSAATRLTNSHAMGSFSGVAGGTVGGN

With `COc1cc2c(NC3CCN(Cc4ccccc4)CC3)nc(NCCCN(C)C)nc2cc1OCc1ccccc1` the viability at 72 h, 0.5 µM [1] was 93%, the pIC50 (THP-1 [2]) was 6.89 and the Activity (RD [3]) was “Active”. The inhibition [4] was “Active”, the pIC50 (RD [5]) was 6.14 and the pIC50 (THP-1 [6]) was 6.57. For the same compound, the inhibition [7] was “Active”, the Activity (SJRH30 [8]) was “Active” and the inhibition at 100 µM [9] was 0.8%. For the same compound, the viability at 72 h, 1 µM [10] was 76%, the inhibition [11] was 22.6% and the pIC50 (SJRH30 [12]) was 5.91. The Activity (MV4-11 [13]) was “Dde”, the Activity (RD [14]) was “Active” and the viability at 72 h, 1 µM [15] was 90%. For the same compound, the pIC50 (RD [16]) was 5.91, the inhibition [17] was 1.8% and the viability at 72 h, 1.25 µM [18] was 92%. For the same compound, the inhibition at 100 µM [19] was 0.5%, the pIC50 (MDA-MB-231) was 6.40 and the inhibition [20] was “Active”. The inhibition (MV4-11 [21]) was “Active” and the Activity (MV4-11 [22]) was “Active”.
